Assay results published in the NIST ThermoML archive (doi:10.1021/je1009619).
Numbers after ± are expanded uncertainties.

Legend:
[1] = xn = mol fraction of the nth substance listed; conditions: Liquid, Vibrating tube method, x1 = 1
[2] = Liquid, Vibrating tube method

C=C(C)[C@H]1CC=C(C)CC1 [(R)-1-methyl-4-(1-methylethenyl)cyclohexene] + CC1=CC[C@H]2C[C@@H]1C2(C)C
mass density [kg/m3], [1]
Conditions	283.15 K	298.15 K	313.15 K	328.15 K	343.15 K	358.15 K
20000 kPa	862 ± 0.9	851.5 ± 0.9	841 ± 0.9	830.5 ± 0.9	820.1 ± 0.9	810.2 ± 0.9
25000 kPa	864.9 ± 0.9	854.5 ± 0.9	844.2 ± 0.9	833.8 ± 0.9	823.7 ± 0.9	813.9 ± 0.9
30000 kPa	867.7 ± 0.9	857.6 ± 0.9	847.2 ± 0.9	837.2 ± 0.9	827.3 ± 0.9	817.6 ± 0.9
35000 kPa	870.4 ± 0.9	860.9 ± 0.9	850.3 ± 0.9	840.4 ± 1	831.1 ± 1	821.3 ± 1
40000 kPa	873.3 ± 1	863.4 ± 1	853.3 ± 1	843.8 ± 1	834.6 ± 1	824.8 ± 1

C=C(C)[C@H]1CC=C(C)CC1 [(R)-1-methyl-4-(1-methylethenyl)cyclohexene]
mass density [kg/m3], [2]
Conditions	283.15 K	298.15 K	313.15 K	328.15 K	343.15 K	358.15 K
20000 kPa	862 ± 0.9	851.5 ± 0.9	841 ± 0.9	830.5 ± 0.9	820.1 ± 0.9	810.2 ± 0.9
25000 kPa	864.9 ± 0.9	854.5 ± 0.9	844.2 ± 0.9	833.8 ± 0.9	823.7 ± 0.9	813.9 ± 0.9
30000 kPa	867.7 ± 0.9	857.6 ± 0.9	847.2 ± 0.9	837.2 ± 0.9	827.3 ± 0.9	817.6 ± 0.9
35000 kPa	870.4 ± 0.9	860.9 ± 0.9	850.3 ± 0.9	840.4 ± 1	831.1 ± 1	821.3 ± 1
40000 kPa	873.3 ± 1	863.4 ± 1	853.3 ± 1	843.8 ± 1	834.6 ± 1	824.8 ± 1

CC1=CC[C@H]2C[C@@H]1C2(C)C [(S)-2-pinene]
mass density [kg/m3], [2]
Conditions	283.15 K	298.15 K	313.15 K	328.15 K	343.15 K	358.15 K
20000 kPa	880 ± 0.9	868.8 ± 0.9	858 ± 0.9	846.7 ± 0.9	835.9 ± 0.9	825 ± 0.9
25000 kPa	883.2 ± 0.9	872.1 ± 0.9	861.3 ± 0.9	850.4 ± 0.9	839.7 ± 0.9	829.2 ± 0.9
30000 kPa	886.3 ± 0.9	875.3 ± 0.9	864.7 ± 0.9	854 ± 0.9	843.8 ± 0.9	833.3 ± 0.9
35000 kPa	889.4 ± 0.9	878.6 ± 0.9	867.9 ± 0.9	857.5 ± 0.9	847.7 ± 1	837.4 ± 1
40000 kPa	892.5 ± 1	881.9 ± 1	871.3 ± 1	861.1 ± 1	851.4 ± 1	841.5 ± 1
